Results on seven compounds are retold here after patent US9120789B2, “1-(5-tert-butyl-2-phenyl-2H-pyrazol-3-yl)-3-[2-fluoro-4-(1-methyl-2-oxo-2,3-dihydro-1H-imidazo[4,5-b]pyridin-7-yloxy)-phenyl]-urea and related compounds and their use in therapy” (CANCER RESEARCH TECHNOLOGY LIMITED, priority 2010, dated 2015).

The target in one experiment is B-RAF (Homo sapiens, UniProt P15056). In words: Assay A - DELFIA kinase assay. Format: biochemical. The following applies: 100 μM ATP; mean of usually three assays; read-out: Assay A BRAF IC50. The procedure:
Biological Methods—Assay A—DELFIA Kinase Assay
Compounds were assessed by a kinase assay performed according to the following protocol.
The following reagents were prepared:
DELFIA Kinase Buffer (DKB):
DKB1 (DKB with B-RAF and MEK Protein):
Combine 4950 μL of DKB and 50 μL of 2.5 mg/mL GST-MEK stock (to give 1 mg of MEK per 40 μL). Then add 22.5 μL of B-RAF to give ˜0.2 μL of B-RAF per 40 μL.
DKB2 (DKB with MEK Protein):
Combine 4950 μL of DKB and 50 μL of 2.5 mg/mL GST-MEK stock (to give […] of MEK per 40 μL). Use 500 μL of this for the blow out (BO) and the empty vector (EV) control.
100 mM stock, dilute to 500 μM to give 100 μM final concentration in assay.
Inhibitors (Test Compounds):
Phospho-MEK1/2 CST #9121S diluted 1:1000 in DELFIA assay buffer (AB). Pre-incubate antibody in the AB for 30 minutes at room temperature prior to use.
Anti-rabbit-Eur labelled secondary Perkin Elmer #AD0105 diluted 1:1000 in DELFIA assay buffer (AB). Pre-incubate antibody in the AB for 30 minutes at room temperature prior to use. (Primary and secondary antibodies were incubated together.)
DELFIA assay buffer Perkin Elmer #4002-0010.
DELFIA enhancement solution Perkin Elmer #4001-0010.
96 well glutathione-coated black plate Perbio #15340.
1. Preblock wells with 5% milk in TBS for 1 hour.
2. Wash wells 3× with 200 μL TBS.
3. Plate out 40 μL of DKB1 for all inhibitors (test compounds), DMSO control, and optionally other control compounds.
4. Plate out 40 μL of DKB2 for BO and EV wells.
5. Add inhibitors (test compounds) at 0.5 μL per well according to desired plate layout.
6. Add 0.5 μL DMSO to vehicle control wells.
7. Add 2 μL of B-RAF to BO and EV wells.
8. Pre-incubate with inhibitors (test compounds) for 10 minutes at room temperature with shaking.
9. Add 10 μL of 500 μM ATP stock, in DKB, to give 100 μM assay concentration.
10. Seal plates with TopSeal and incubate at room temperature with shaking for 45 minutes.
11. Wash plates 3× with 200 μL 0.1% Tween20/Water to terminate reaction.
12. Add 50 μL per well of antibody mix and incubate for 1 hour at room temperature with shaking.
13. Wash plates 3× with 200 μL 0.1% Tween20/Water.
14. Add 100 μL DELFIA enhancement solution per well, cover in foil, and incubate at room temperature for 30 minutes with shaking.
15. Read on Victor using Europium protocol.
Values for the blank (Empty Vector) are subtracted from all values. The DMSO controls are set as 100% activity and assay points (the response) are calculated as a percentage of the DMSO control. Data are plotted using Graphpad Prism software and a non-linear regression line is calculated using a variable slope sigmoidal dose-response equation: Y=Bottom+[Top−Bottom]/[1+10^((Log EC50−X)*HillSlope)] where X is the logarithm of concentration and Y is the response. The IC50 generated by this procedure is the concentration of the drug that produces a percentage control fluorescence value midway between the saturation, and zero-effect plateaus. Three independent assays are usually performed and the mean IC50 is reported. Biological Methods—Assay B—Cell Based Phosho-ERK Assay

Experiment [1] deals with SW620 human colorectal carcinoma cells (mutant RAS) xenograft. In words: Xenograft study, mutant RAS SW620. In kind it is in vivo, mice. The following applies: for Effect on tumour volume as compared to the control (in words) / Factor of tumour volume reduction as compared to the control: SW620 xenograft; for Factor of tumour volume reduction as compared to the control: over the timescale of the study; for Ratio of: Tumour Volume (Treatment)/Tumour Volume (Control) (mutant RAS SW620 xenograft): athymic mice, gavage once daily for 24 doses. The procedure: (§1) Biological Methods—Xenograft Studies
(§2) SW620 human colorectal carcinoma cells (mutant RAS, 7×10^7) or A375M human melanoma cells (mutant BRAF, 10^7) were inoculated sub-cutaneously in suspension (0.2 mL) into the right flank of female Crl:CD1-Foxn1nu athymic mice. Groups were assigned to treatment following stratified allocation of tumour volumes. Treatment with test compound began between days 11-14 post-cell administration. For gavage, a suspension (DMSO:water, 1:19, v/v at 10 m L/kg) was administered. Control animals received a similar dosage of vehicle (DMSO:water, 1:19, v/v). Treatment with test compound was continued once daily for 24 doses.

Experiment [2] deals with A375M human melanoma cells (mutant BRAF) xenograft. In words: Xenograft study, mutant BRAF A375. In kind it is in vivo, mice. The following applies: for Factor of tumour volume reduction as compared to the control: over the timescale of the study. How it is done:
as §1, §2

Each structure is given as a SMILES string.

Chain of B-RAF (P15056 whole entry): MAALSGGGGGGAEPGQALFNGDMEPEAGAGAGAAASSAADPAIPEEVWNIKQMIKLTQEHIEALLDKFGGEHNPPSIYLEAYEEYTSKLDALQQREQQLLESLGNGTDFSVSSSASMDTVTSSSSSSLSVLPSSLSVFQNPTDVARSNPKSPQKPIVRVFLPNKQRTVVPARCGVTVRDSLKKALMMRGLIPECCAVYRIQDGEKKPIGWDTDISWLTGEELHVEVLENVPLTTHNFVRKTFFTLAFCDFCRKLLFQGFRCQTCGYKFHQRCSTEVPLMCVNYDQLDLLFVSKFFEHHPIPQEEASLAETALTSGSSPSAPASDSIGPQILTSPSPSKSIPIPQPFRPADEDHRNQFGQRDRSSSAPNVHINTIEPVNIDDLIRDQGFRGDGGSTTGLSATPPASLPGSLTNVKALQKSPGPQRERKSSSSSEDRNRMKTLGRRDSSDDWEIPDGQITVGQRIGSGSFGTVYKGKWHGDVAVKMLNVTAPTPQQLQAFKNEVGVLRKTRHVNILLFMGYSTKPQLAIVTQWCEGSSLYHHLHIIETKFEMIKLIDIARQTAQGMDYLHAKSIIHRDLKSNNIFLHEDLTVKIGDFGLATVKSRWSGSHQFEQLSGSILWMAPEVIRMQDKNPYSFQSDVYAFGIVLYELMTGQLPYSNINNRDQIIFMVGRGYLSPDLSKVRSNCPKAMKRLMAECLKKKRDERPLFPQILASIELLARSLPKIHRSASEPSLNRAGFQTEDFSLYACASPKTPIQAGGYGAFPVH

`Cc1ccc(-n2nc(C(C)(C)C)cc2NC(=O)Nc2ccc(Oc3ccnc4[nH]c(=O)n(C)c34)c3ccccc23)cc1` [BB-02, 1-(1-N-p-tolyl-3-tert-butyl-pyrazol-5-yl)-3-(4-(2-oxo-2,3-dihydro-1-N-methyl-1H-imidazo[4,5-b]pyridin-7-yl-oxy)naphthalen-1-yl)urea]: on B-RAF, the IC50 (in general, the concentration at which inhibition is half-maximal) turned out to be 2280 nM. In addition, in experiment [1], the “Effect on tumour volume as compared to the control (in words)” value is “statistically significant efficacy”, the “Factor of tumour volume reduction as compared to the control” value (“Factor of tumour volume reduction” for short) is “about 1.5” and the “Ratio of: Tumour Volume (Treatment)/Tumour Volume (Control) (mutant RAS SW620 xenograft)” value (“Ratio of: Tumour Volume” below) is recorded as 0.66. Besides, the “Factor of tumour volume reduction” value in experiment [2] is recorded as “about 1.5”.
Consider `Cc1ccc(-n2nc(C(C)(C)C)cc2NC(=O)Nc2ccc(Oc3ccnc4[nH]c(=O)n(C)c34)cc2)cc1` [XX-02, 1-(1-N-p-tolyl-3-tert-butyl-pyrazol-5-yl)-3-(4-(2-oxo-2,3-dihydro-1-N-methyl-1H-imidazo[4,5-b]pyridin-7-yl-oxy)phenyl)urea], for which the IC50 at B-RAF came to 200 nM. Further, in experiment [1], the “Effect on tumour volume as compared to the control (in words)” value is “relatively little effect” and the “Ratio of: Tumour Volume” value is listed as 0.95. For the same compound, in experiment [2], the “Effect on tumour volume as compared to the control (in words)” value is recorded as “at least to some degree effective”.
As for `Cn1c(=O)[nH]c2nccc(Oc3ccc(NC(=O)Nc4cc(C(C)(C)C)nn4-c4ccccc4)c(F)c3)c21` [AA-01, 1-(3-Tert-butyl-1-phenyl-1H-pyrazol-5-yl)-3-(2-fluoro-4-(1-N-methyl-2-oxo-2,3-dihydro-1H-imidazo[4,5-b]pyridin-7-yloxy)phenyl)urea], at B-RAF, the IC50 was determined as 270 nM. For the same compound, in experiment [1], the “Effect on tumour volume as compared to the control (in words)” value was “statistically significant efficacy”, the “Factor of tumour volume reduction” value is on record as “about 3” and the “Ratio of: Tumour Volume” value stood at 0.34. Moreover, the “Factor of tumour volume reduction” value in experiment [2] was “about 2.5”.
For `CC(C)(C)c1cc(NC(=O)Nc2ccc(Oc3ccnc4[nH]c(=O)[nH]c34)cc2)n(-c2ccc(F)cc2)n1` [XX-04, 1-[5-tert-Butyl-2-(4-fluoro-phenyl)-2H-pyrazol-3-yl]-3-[4-(2-oxo-2,3-dihydro-1H-imidazo[4,5-b]pyridin-7-yloxy)-phenyl]urea], the IC50 at B-RAF is 240 nM. Besides, in experiment [1], the “Effect on tumour volume as compared to the control (in words)” value is “relatively little effect” and the “Ratio of: Tumour Volume” value stood at 0.87.
Turning to `Cn1c(=O)[nH]c2nccc(Oc3ccc(NC(=O)Nc4cc(C(C)(C)C)nn4-c4ccccc4)c4ccccc34)c21` [BB-01, 1-(3-Tert-butyl-1-phenyl-1H-pyrazol-5-yl)-3-(4-(1-methyl-2-oxo-2,3-dihydro-1H-imidazo[4,5-b]pyridin-7-yloxy)naphthalen-1-yl)urea], the IC50 at B-RAF was determined as 250 nM.
As for `Cn1c(=O)n(C)c2c(Oc3ccc(NC(=O)Nc4cc(C(C)(C)C)nn4-c4ccccc4)c(F)c3)ccnc21` [XX-03, 1-(3-Tert-butyl-1-phenyl-1H-pyrazol-5-yl)-3-(4-(1,3-dimethyl-2-oxo-2,3-dihydro-1H-imidazo[4,5-b]pyridin-7-yloxy)-2-fluorophenyl)urea], the IC50 at B-RAF worked out at 1090 nM. Also, in experiment [1], the “Effect on tumour volume as compared to the control (in words)” value is on record as “relatively little effect” and the “Ratio of: Tumour Volume” value came out at 0.97.
Regarding `CC(C)(C)c1cc(NC(=O)Nc2ccc(Oc3ccnc4[nH]c(=O)[nH]c34)cc2)n(-c2ccccc2)n1` [XX-01, 1-(5-Tert-butyl-2-phenyl-2H-pyrazol-3-yl)-3-[4-(2-oxo-2,3-dihydro-1H-imidazo[4,5-b]pyridin-7-yloxy)-phenyl]-urea], the IC50 at B-RAF was 94 nM. Also, in experiment [1], the “Effect on tumour volume as compared to the control (in words)” value is “relatively little effect” and the “Ratio of: Tumour Volume” value is >1.
